Results on 17 compounds are retold here after ChEMBL document CHEMBL4184101, “Hybrid peptide-small molecule oxytocin analogs are potent and selective agonists of the oxytocin receptor” (Bioorg Med Chem Lett, 2018).

*1 amine or outer side, *2 acyl side, *3 side chain or, on linkers, in order; H or OH if unused. Where a SMILES comes first, the peptide text is derived from it. Bridges are numbered along the chain shown (N, C = ends). [ ]: non-standard residue; d: D form. The star is where a group is joined. X3 = c1ccc(OC[C@@H]2CCCN2*)cc1; X5 = c1ccc(NC[C@@H]2CCCN2*)cc1; X8 = c1ccc(CC[C@@H]2CCCN2*)cc1; Cysteamide = C(CS[*:3])N[*:1]; X1 = c1ccc([C@@H]2CCCN2*)nc1; X6 = Cc1nnc([C@@H]2CCCN2*)o1; X9 = C1CCN(C2CCN(*)CC2)C1; Pyrrolidide = C1CCN(*)C1; X4 = COC[C@@H]1CCCN1*; X10 = CN1CCCN(*)CC1; X2 = C[C@H]1CCCN1*; X7 = CC(C)CCN(C)*; Mpa = O=C(O)CCS

For series [1], the target named is T1, Oxytocin receptor (Homo sapiens) (UniProt P30559).
T1 sequence (whole entry): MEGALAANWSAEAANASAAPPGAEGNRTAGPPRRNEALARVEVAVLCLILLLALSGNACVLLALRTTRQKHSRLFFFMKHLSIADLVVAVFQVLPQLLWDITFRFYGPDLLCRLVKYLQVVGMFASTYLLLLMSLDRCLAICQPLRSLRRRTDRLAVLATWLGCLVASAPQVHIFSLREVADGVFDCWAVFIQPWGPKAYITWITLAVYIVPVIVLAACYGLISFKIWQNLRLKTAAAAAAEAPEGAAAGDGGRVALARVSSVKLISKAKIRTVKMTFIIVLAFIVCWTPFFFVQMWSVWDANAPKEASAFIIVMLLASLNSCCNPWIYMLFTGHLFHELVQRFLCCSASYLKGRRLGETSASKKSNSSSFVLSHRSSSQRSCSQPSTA
Briefly: Agonist activity at human OTR expressed in CHO cells assessed as increase in calcium flux after 60 to 120 mins by fluo-4 dye based FLIPR assay relative to control. The series is classed as functional, cell-based. (In general: A change in cytosolic calcium serves as a functional read-out for many receptors and channels.)

The target in another series is Vasopressin V1a receptor (Homo sapiens, UniProt P37288). Nature of the series: Agonist activity at vasopressin 1a receptor (unknown origin). The series is classed as functional.
Vasopressin V1a receptor, sequence (P37288 whole entry): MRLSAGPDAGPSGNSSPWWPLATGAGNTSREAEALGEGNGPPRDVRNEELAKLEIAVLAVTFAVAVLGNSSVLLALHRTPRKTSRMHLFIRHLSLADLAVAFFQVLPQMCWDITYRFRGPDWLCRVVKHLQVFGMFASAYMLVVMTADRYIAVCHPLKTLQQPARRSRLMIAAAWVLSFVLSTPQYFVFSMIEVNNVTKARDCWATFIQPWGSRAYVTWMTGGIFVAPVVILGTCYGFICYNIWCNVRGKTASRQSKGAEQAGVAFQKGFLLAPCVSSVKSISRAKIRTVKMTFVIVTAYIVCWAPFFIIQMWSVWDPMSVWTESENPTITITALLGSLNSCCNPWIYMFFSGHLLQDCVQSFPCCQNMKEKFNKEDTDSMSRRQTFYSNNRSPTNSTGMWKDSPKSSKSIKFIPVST
The next series concerns the target T2, Oxytocin receptor (Homo sapiens, UniProt P30559).
T2 sequence (P30559 whole entry): T1 sequence (whole entry)
Nature of the series: Agonist activity at human OTR expressed in CHO cells assessed as increase in calcium flux after 60 to 120 mins by fluo-4 dye based FLIPR assay. The series is classed as functional, cell-based.

Series [2] can be described thus: Stability in human liver microsomes by LC/MS/MS analysis. The series is classed as ADME, microsome. The conditions noted are these: read-out: Stability. (Liver microsomes are vesicles of endoplasmic reticulum, rich in cytochrome P450 enzymes.)

For orientation: EC50 means the midpoint of the concentration-response curve. Take `CC[C@H](C)[C@@H]1NC(=O)[C@H](Cc2ccc(O)cc2)NC(=O)CCSSC[C@@H](C(=O)N2CCC[C@H]2C(N)=O)NC(=O)[C@H](CC(N)=O)NC(=O)[C@H](CCC(N)=O)NC1=O`: the Efficacy in series [1] was 89%. Also, the EC50 was above 1000 nM at Vasopressin V1a receptor and 1.3 nM on Oxytocin receptor. For the same compound, the CLint scaled in series [2] was below 8 mL/min/kg.
Consider `CC[C@H](C)[C@@H]1NC(=O)[C@H](Cc2ccc(O)cc2)NC(=O)CCSSC[C@@H](C(=O)N2CCC[C@H]2C(=O)N[C@@H](CC(C)C)C(N)=O)NC(=O)[C@H](CC(N)=O)NC(=O)[C@H](CCC(N)=O)NC1=O`, for which, in series [1], the Efficacy was determined as 82%. Further, the EC50 at Vasopressin V1a receptor was above 1000 nM; at Oxytocin receptor, 1.8 nM. For the same compound, in series [2], the CLint scaled was below 8 mL/min/kg.
Take `CC[C@H](C)[C@@H]1NC(=O)[C@H](Cc2ccc(O)cc2)NC(=O)CCSSC[C@@H](C(N)=O)NC(=O)[C@H](CC(N)=O)NC(=O)[C@H](CCC(N)=O)NC1=O`: the Efficacy in series [1] is 90%. Further, the EC50 on Vasopressin V1a receptor was above 1000 nM; at Oxytocin receptor it was 5.4 nM. The CLint scaled in series [2] was below 8 mL/min/kg.
On to `CC[C@H](C)[C@@H]1NC(=O)[C@H](Cc2ccc(O)cc2)NC(=O)CCSSC[C@@H](C(=O)N2CCC[C@H]2C(=O)N[C@@H](CC(C)C)C(=O)NCC(N)=O)NC(=O)[C@H](CC(N)=O)NC(=O)[C@H](CCC(N)=O)NC1=O`, for which the Efficacy in series [1] worked out at 106%. Moreover, the CLint scaled in series [2] was below 8 mL/min/kg.
Take `CC[C@H](C)[C@@H]1NC(=O)[C@H](Cc2ccc(O)cc2)NC(=O)CCSSCCNC(=O)[C@H](CC(N)=O)NC(=O)[C@H](CCC(N)=O)NC1=O` ([Mpa]YIQN-Cysteamide; disulfide 1-C): the Efficacy in series [1] amounted to 67%. Further, the EC50 at Vasopressin V1a receptor was above 1000 nM; on Oxytocin receptor, 28 nM. Also, the CLint scaled in series [2] was below 8 mL/min/kg.
For `CC[C@H](C)[C@@H]1NC(=O)[C@H](Cc2ccc(O)cc2)NC(=O)CCSSC[C@@H](C(=O)N2CCCC2)NC(=O)[C@H](CC(N)=O)NC(=O)[C@H](CCC(N)=O)NC1=O` ([Mpa]YIQNC-Pyrrolidide; disulfide 1-6), in series [1], the Efficacy is 97%. Also, the EC50 is above 1000 nM on Vasopressin V1a receptor and 0.51 nM at Oxytocin receptor. For the same compound, the CLint scaled in series [2] was below 8 mL/min/kg.
The matching figures for `CC[C@H](C)[C@@H]1NC(=O)[C@H](Cc2ccc(O)cc2)NC(=O)CCSSC[C@@H](C(=O)N2CCC[C@H]2c2ccccn2)NC(=O)[C@H](CC(N)=O)NC(=O)[C@H](CCC(N)=O)NC1=O` ([Mpa]YIQNC-X1; disulfide 1-6): 80%, above 1000 nM, 0.83 nM and below 8 mL/min/kg.
Consider `CC[C@H](C)[C@@H]1NC(=O)[C@H](Cc2ccc(O)cc2)NC(=O)CCSSC[C@@H](C(=O)N2CCC[C@@H]2C)NC(=O)[C@H](CC(N)=O)NC(=O)[C@H](CCC(N)=O)NC1=O` ([Mpa]YIQNC-X2; disulfide 1-6), for which the Efficacy in series [1] was determined as 84%. Further, the EC50 on Vasopressin V1a receptor is above 1000 nM; on Oxytocin receptor, 0.6 nM. In addition, in series [2], the CLint scaled is below 8 mL/min/kg.
`CC[C@H](C)[C@@H]1NC(=O)[C@H](Cc2ccc(O)cc2)NC(=O)CCSSC[C@@H](C(=O)N2CCC[C@H]2COc2ccccc2)NC(=O)[C@H](CC(N)=O)NC(=O)[C@H](CCC(N)=O)NC1=O` ([Mpa]YIQNC-X3; disulfide 1-6): in series [1], the Efficacy came out at 52%. Moreover, the EC50 on Vasopressin V1a receptor is above 1000 nM; at Oxytocin receptor, 194 nM. Besides, in series [2], the CLint scaled was 123 mL/min/kg.
For the compound `CC[C@H](C)[C@@H]1NC(=O)[C@H](Cc2ccc(O)cc2)NC(=O)CCSSC[C@@H](C(=O)N2CCC[C@H]2COC)NC(=O)[C@H](CC(N)=O)NC(=O)[C@H](CCC(N)=O)NC1=O` ([Mpa]YIQNC-X4; disulfide 1-6), the Efficacy in series [1] worked out at 91%. Moreover, the EC50 at Vasopressin V1a receptor is above 1000 nM; at Oxytocin receptor, 0.44 nM. The CLint scaled in series [2] was below 8 mL/min/kg.
On to `CC[C@H](C)[C@@H]1NC(=O)[C@H](Cc2ccc(O)cc2)NC(=O)CCSSC[C@@H](C(=O)N2CCC[C@H]2CNc2ccccc2)NC(=O)[C@H](CC(N)=O)NC(=O)[C@H](CCC(N)=O)NC1=O` ([Mpa]YIQNC-X5; disulfide 1-6), for which, in series [1], the Efficacy amounted to 76%. For the same compound, the EC50 at Vasopressin V1a receptor was above 1000 nM; at Oxytocin receptor it was 0.77 nM. Besides, the CLint scaled in series [2] was 40 mL/min/kg.
Turning to `CC[C@H](C)[C@@H]1NC(=O)[C@H](Cc2ccc(O)cc2)NC(=O)CCSSC[C@@H](C(=O)N2CCC[C@H]2c2nnc(C)o2)NC(=O)[C@H](CC(N)=O)NC(=O)[C@H](CCC(N)=O)NC1=O` ([Mpa]YIQNC-X6; disulfide 1-6), the Efficacy in series [1] was found to be 77%. Moreover, the concentration for a half-maximal effect (EC50) was above 1000 nM at Vasopressin V1a receptor and 0.6 nM at Oxytocin receptor. For the same compound, the CLint scaled in series [2] was below 8 mL/min/kg.
Turning to `CC[C@H](C)[C@@H]1NC(=O)[C@H](Cc2ccc(O)cc2)NC(=O)CCSSC[C@@H](C(=O)N2CCC[C@H]2CCc2ccccc2)NC(=O)[C@H](CC(N)=O)NC(=O)[C@H](CCC(N)=O)NC1=O` ([Mpa]YIQNC-X8; disulfide 1-6), in series [1], the Efficacy came to 59%. For the same compound, the figures for the half-maximal effective concentration (EC50) on Vasopressin V1a receptor and on Oxytocin receptor were above 1000 nM and 5.2 nM, respectively. Also, the CLint scaled in series [2] turned out to be 153 mL/min/kg.
Consider `CC[C@H](C)[C@@H]1NC(=O)[C@H](Cc2ccc(O)cc2)NC(=O)CCSSC[C@@H](C(=O)N2CCC[C@H]2C(=O)N(C)CCC(C)C)NC(=O)[C@H](CC(N)=O)NC(=O)[C@H](CCC(N)=O)NC1=O` ([Mpa]YIQNCP-X7; disulfide 1-6), for which the Efficacy in series [1] was 94%. Moreover, the EC50 on Vasopressin V1a receptor was above 1000 nM; at Oxytocin receptor, 1.8 nM. For the same compound, the CLint scaled in series [2] was 25.5 mL/min/kg.
For the compound `CC[C@H](C)[C@@H]1NC(=O)[C@H](Cc2ccc(O)cc2)NC(=O)CCSSC[C@@H](C(=O)N2CCC[C@H]2C(=O)N2CCC(N3CCCC3)CC2)NC(=O)[C@H](CC(N)=O)NC(=O)[C@H](CCC(N)=O)NC1=O` ([Mpa]YIQNCP-X9; disulfide 1-6), the Efficacy in series [1] stood at 98%. For the same compound, the half-maximal effective concentration (EC50) at Vasopressin V1a receptor is above 1000 nM; on Oxytocin receptor it was 6.8 nM.
On to `CC[C@H](C)[C@@H]1NC(=O)[C@H](Cc2ccc(O)cc2)NC(=O)CCSSC[C@@H](C(=O)N2CCC[C@H]2C(=O)N2CCCN(C)CC2)NC(=O)[C@H](CC(N)=O)NC(=O)[C@H](CCC(N)=O)NC1=O` ([Mpa]YIQNCP-X10; disulfide 1-6), for which the Efficacy in series [1] came to 98%. Moreover, the EC50 is above 1000 nM on Vasopressin V1a receptor and 3.6 nM at Oxytocin receptor.
Take `CC[C@H](C)[C@@H]1NC(=O)[C@H](Cc2ccc(O)cc2)NC(=O)[C@@H](N)CSSC[C@@H](C(=O)N2CCC[C@H]2C(=O)N[C@@H](CC(C)C)C(=O)NCC(N)=O)NC(=O)[C@H](CC(N)=O)NC(=O)[C@H](CCC(N)=O)NC1=O` [OXYTOCIN]: the Efficacy in series [1] is 102%. Further, in series [2], the CLint scaled came to 30 mL/min/kg.
